We go through 42 molecules from patent US20180273528A1 (LES LABORATOIRES SERVIER, priority 2015, published 2018).

The test concerns the target T1, His-TEV-DYRK1A Kinase domain (aa127-485) (Homo sapiens, UniProt Q13627).
T1 construct: His-TEV-DYRK1A Kinase domain (aa127-485); His tag (N); TEV protease cleavage site (N)
Briefly: Kinase ADP assay (ADP Hunter), DYRK1A kinase domain. In kind it is biochemical. The conditions noted are these: 20 μM ATP. How it is done: The enzyme reaction was conducted in assay buffer (pH 7.4), containing 15 mM Hepes; 20 mM NaCl; 1 mM EGTA; 10 mM MgCl2; 0.02% Tween20 and 0.1 mg/ml Bovine-y-globulin. Test compounds of the invention were added in reaction buffer in a range of concentrations for 10 minutes at 30° C. in the presence of 20 nM DYRK1A enzyme, 40 μM peptide substrate and 20 μM ATP. Detection reagents (DiscoveRx 90-0083), ADP Hunter Plus Reagent A and then ADP Hunter Plus Reagent B were added. After a following 20 minutes incubation at 30° C., ADP Hunter Plus Stop Solution was added. The fluorescence intensity was measured at 590 nm.

“4-{3-[2-(2,6-dimethoxyphenoxy)ethyl]-3H-imidazo[4,5-b]pyridin-5-yl}pyridine-2,6-diamine [Example 213]” gave a concentration for half-maximal inhibition (IC50) of 0.069 µM.

`Cc1nc2ccc(-c3cc(N)nc(N)c3)nc2n1[C@H](C)COc1ccccc1` (single isomer, unassigned) [Example 104] gave a concentration for half-maximal inhibition (IC50) of 0.045 µM.

`Cc1nc2ccc(-c3cc(N)nc(N)c3)nc2n1[C@@H](C)COc1ccccc1` (single isomer, unassigned) [Example 105] gave a half-maximal inhibitory concentration (IC50) of 0.092 µM.

As for `Cc1nc2ccc(-c3cc(N)nc(N)c3)nc2n1C[C@@H](C)Oc1ccccc1Cl` (single isomer, unassigned) [Example 118], the IC50 stood at 0.031 µM.

In turn, `Cc1nc2ccc(-c3cc(N)nc(N)c3)nc2n1C[C@@H](C)Oc1ccc(F)cc1` (single isomer, unassigned) [Example 130] registered an IC50 of 0.058 µM.

Molecule `COc1ccccc1O[C@H](C)Cn1c(C)nc2ccc(-c3cc(N)nc(N)c3)nc21` (single isomer, unassigned) [Example 142] registered an IC50 of 0.037 µM.

`Cc1nc2ccc(-c3cc(N)nc(N)c3)nc2n1C[C@H](C)Oc1ccc(F)cn1` (single isomer, unassigned) [Example 178] came in with an IC50 of 0.176 µM. Against the preceding molecule, the IC50 is about 4.8-fold higher.

`Cc1nc2ccc(-c3cc(N)nc(N)c3)nc2n1C[C@@H](C)Oc1cccc(Br)n1` (single isomer, unassigned) [Example 181] returned an IC50 of 0.081 µM.

Turning to `Cc1nc2ccc(-c3cc(N)nc(N)c3)nc2n1C[C@@H](C)Oc1ncccc1Br` (single isomer, unassigned) [Example 183], the IC50 came out at 0.226 µM.

For `Cc1nc2ccc(-c3cc(N)nc(N)c3)nc2n1C[C@H](C)Oc1ccc(Cl)cn1` (single isomer, unassigned) [Example 184], the 50% inhibitory concentration (IC50) is 0.165 µM.

For `Cc1nc2ccc(-c3cc(N)nc(N)c3)nc2n1C[C@@H](C)Oc1ccc(Cl)cn1` (single isomer, unassigned) [Example 185], half-maximal inhibition (IC50) required 0.041 µM. This IC50 is about 4-fold lower than that of the molecule before.

`Cc1nc2ccc(-c3cc(N)nc(N)c3)nc2n1C[C@H](C)Oc1ccc(Br)cn1` (single isomer, unassigned) [Example 186] had an IC50 of 0.154 µM.

Regarding `Cc1nc2ccc(-c3cc(N)nc(N)c3)nc2n1C[C@@H](C)Oc1ncccc1Cl` (single isomer, unassigned) [Example 191], the half-maximal inhibitory concentration (IC50) came to 0.2 µM. The IC50 values of the last two molecules are within 1.5-fold of each other.

The molecule `Cc1nc2ccc(-c3cc(N)nc(N)c3)nc2n1C[C@H](C)Oc1nc(F)ccc1F` (single isomer, unassigned) [Example 192] registered an IC50 of 0.084 µM.

For `Cc1nc2ccc(-c3cc(N)nc(N)c3)nc2n1C[C@@H](C)Oc1nc(F)ccc1F` (single isomer, unassigned) [Example 193], 0.028 µM corresponded to half-maximal inhibition (IC50).

Molecule `Cc1nc2ccc(-c3cc(N)nc(N)c3)nc2n1CCCCO` [Example 70, 4-[5-(2,6-diaminopyridin-4-yl)-2-methyl-3H-imidazo[4,5-b]pyridin-3-yl]butan-1-ol] showed an IC50 of 0.013 µM.

As for `Cc1nc2ccc(-c3cc(N)nc(N)c3)nc2n1CC1CCCOC1` (stereo not drawn) [Example 76, 4-[2-methyl-3-(tetrahydro-2H-pyran-3-ylmethyl)-3H-imidazo[4,5-b]pyridin-5-yl]pyridine-2,6-diamine], the midpoint of inhibition, the IC50, lay at 0.04 µM.

On to `Cc1nc2ccc(-c3cc(N)nc(N)c3)nc2n1CC1CCOCC1` [Example 80, 4-[2-methyl-3-(tetrahydro-2H-pyran-4-ylmethyl)-3H-imidazo[4,5-b]pyridin-5-yl]pyridine-2,6-diamine], for which the 50% inhibitory concentration (IC50) worked out at 0.043 µM. This IC50 and that of the molecule before are within 1.5-fold of each other.

As to `Cc1nc2ccc(-c3cc(N)nc(N)c3)nc2n1C(C)Cc1ccco1` (stereo not drawn) [Example 82, 4-{3-[1-(furan-2-yl)propan-2-yl]-2-methyl-3H-imidazo[4,5-b]pyridin-5-yl}pyridine-2,6-diamine], inhibition was half-maximal at 0.096 µM (IC50).

`Cc1nc2ccc(-c3cc(N)nc(N)c3)nc2n1CCc1cccc(OC(C)C)c1` [Example 87]: the IC50 stood at 0.017 µM.

Take `Cc1nc2ccc(-c3cc(N)nc(N)c3)nc2n1CCC1CCCCC1C` (stereo not drawn) [Example 102, 4-{2-methyl-3-[2-(2-methylcyclohexyl)ethyl]-3H-imidazo[4,5-b]pyridin-5-yl}pyridine-2,6-diamine]: it took 0.017 µM to reach half-maximal inhibition (IC50).

`Cc1nc2ccc(-c3cc(N)nc(N)c3)nc2n1C/C=C/c1ccccc1` [Example 111, 4-{2-methyl-3-[(2E)-3-phenylprop-2-en-1-yl]-3H-imidazo[4,5-b]pyridin-5-yl}pyridine-2,6-diamine] showed a 50% inhibitory concentration (IC50) of 0.012 µM.

On to `CCCCc1nc2ccc(-c3cc(N)nc(N)c3)nc2n1CCOc1ccccc1` [Example 146, 4-[2-butyl-3-(2-phenoxyethyl)-3H-imidazo[4,5-b]pyridin-5-yl]pyridine-2,6-diamine], for which the concentration for half-maximal inhibition (IC50) worked out at 0.089 µM.

As for `CCCCc1nc2ccc(-c3cc(N)nc(N)c3)nc2n1C` [Example 147, 4-(2-butyl-3-methyl-3H-imidazo[4,5-b]pyridin-5-yl)pyridine-2,6-diamine], the 50% inhibitory concentration (IC50) was determined as 0.021 µM.

Turning to `CCc1nc2ccc(-c3cc(N)nc(N)c3)nc2n1C` [Example 159, 4-(2-ethyl-3-methyl-3H-imidazo[4,5-b]pyridin-5-yl)pyridine-2,6-diamine], 0.043 µM corresponded to half-maximal inhibition (IC50).

For the molecule `CCCc1nc2ccc(-c3cc(N)nc(N)c3)nc2n1CCOc1ccccc1` [Example 162, 4-[3-(2-phenoxyethyl)-2-propyl-3H-imidazo[4,5-b]pyridin-5-yl]pyridine-2,6-diamine], the 50% inhibitory concentration (IC50) amounted to 0.056 µM.

On to `CCCc1nc2ccc(-c3cc(N)nc(N)c3)nc2n1C` [Example 163, 4-(3-methyl-2-propyl-31-imidazo[4,5-b]pyridin-5-yl)pyridine-2,6-diamine], for which the IC50 was 0.033 µM.

`Cc1nc2ccc(-c3cc(N)nc(N)c3)nc2n1CCOc1ncccc1Br` [Example 169, 4-(3-{2-[(3-bromopyridin-2-yl)oxy]ethyl}-2-methyl-3H-imidazo[4,5-b]pyridin-5-yl)pyridine-2,6-diamine] displayed an IC50 of 0.055 µM.

`Cc1nc2ccc(-c3cc(N)nc(N)c3)nc2n1C[C@@H](C)Oc1ccc(Br)cn1` [Example 187] registered a 50% inhibitory concentration (IC50) of 0.082 µM.

Molecule `Cc1cccc(OCCn2c(C)nc3ccc(-c4cc(N)nc(N)c4)nc32)c1` [Example 201, 4-{2-methyl-3-[2-(3-methylphenoxy)ethyl]-3H-imidazo[4,5-b]pyridin-5-yl}pyridine-2,6-diamine] returned an IC50 of 0.021 µM. Against the preceding molecule, the IC50 is about 3.9-fold lower.

The molecule `Cc1nc2ccc(-c3cc(N)nc(N)c3)nc2n1CCOc1ccccc1Cl` [Example 204, 4-{3-[2-(2-chlorophenoxy)ethyl]-2-methyl-3H-imidazo[4,5-b]pyridin-5-yl}pyridine-2,6-diamine] came in with a half-inhibitory concentration (IC50) of 0.041 µM. Compared with the last molecule, the IC50 is about 2-fold higher.

For the molecule `Cc1ccccc1OCCn1c(C)nc2ccc(-c3cc(N)nc(N)c3)nc21` [Example 205, 4-{2-methyl-3-[2-(2-methylphenoxy)ethyl]-3H-imidazo[4,5-b]pyridin-5-yl}pyridine-2,6-diamine], 0.03 µM corresponded to half-maximal inhibition (IC50).

Consider `COc1ccc(OCCn2c(C)nc3ccc(-c4cc(N)nc(N)c4)nc32)cc1` [Example 209, 4-{3-[2-(4-methoxyphenoxy)ethyl]-2-methyl-3H-imidazo[4,5-b]pyridin-5-yl}pyridine-2,6-diamine], for which inhibition was half-maximal at 0.025 µM (IC50).

With `COc1ccc(C)cc1OCCn1c(C)nc2ccc(-c3cc(N)nc(N)c3)nc21` [Example 211, 4-{3-[2-(2-methoxy-5-methylphenoxy)ethyl]-2-methyl-3H-imidazo[4,5-b]pyridin-5-yl}pyridine-2,6-diamine], the 50% inhibitory concentration (IC50) amounted to 0.049 µM.

`Cc1nc2ccc(-c3cc(N)nc(N)c3)nc2n1CCOc1ccccc1OC(C)C` [Example 214, 4-(2-methyl-3-{2-[2-(propan-2-yloxy)phenoxy]ethyl}-3H-imidazo[4,5-b]pyridin-5-yl)pyridine-2,6-diamine]: inhibition was half-maximal at 0.072 µM (IC50). The IC50 values of the last two molecules are within 1.5-fold of each other.

`CCOc1ccccc1OCCn1c(C)nc2ccc(-c3cc(N)nc(N)c3)nc21` [Example 215, 4-{3-[2-(2-ethoxyphenoxy)ethyl]-2-methyl-3H-imidazo[4,5-b]pyridin-5-yl}pyridine-2,6-diamine] registered an IC50 of 0.066 µM.

The molecule `Cc1nc2ccc(-c3cc(N)nc(N)c3)nc2n1CCOc1cccnc1` [Example 216, 4-{2-methyl-3-[2-(pyridin-3-yloxy)ethyl]-3H-imidazo[4,5-b]pyridin-5-yl}pyridine-2,6-diamine] yielded a concentration for half-maximal inhibition (IC50) of 0.029 µM.

In the case of `Cc1nc2ccc(-c3cc(N)nc(N)c3)nc2n1CCOc1ccnn1C` [Example 218, 4-(2-methyl-3-{2-[(1-methyl-1H-pyrazol-5-yl)oxy]ethyl}-3H-imidazo[4,5-b]pyridin-5-yl)pyridine-2,6-diamine], half-maximal inhibition (IC50) was put at 0.057 µM.

For `Cc1nc2ccc(-c3cc(N)nc(N)c3)nc2n1CCOc1ncccn1` [Example 219, 4-{2-methyl-3-[2-(pyrimidin-2-yloxy)ethyl]-3H-imidazo[4,5-b]pyridin-5-yl}pyridine-2,6-diamine], half-maximal inhibition (IC50) required 0.04 µM.

Molecule `C=CCCn1c(C)nc2ccc(-c3ccnc(N)c3)nc21` [Example 239, 4-[3-(but-3-en-1-yl)-2-methyl-3H-imidazo[4,5-b]pyridin-5-yl]pyridin-2-amine] returned an IC50 of 0.068 µM.

On to `Cc1nc2ccc(-c3cc(F)nc(N)c3F)nc2n1C1CC1` [Example 241, 4-(3-cyclopropyl-2-methyl-3H-imidazo[4,5-b]pyridin-5-yl)-3,6-difluoropyridin-2-amine], for which inhibition was half-maximal at 0.098 µM (IC50).

In turn, `Cc1nc2ccc(-c3c(F)c(N)nc(N)c3F)nc2n1C1CC1` [Example 242, 4-(3-cyclopropyl-2-methyl-3H-imidazo[4,5-b]pyridin-5-yl)-3,5-difluoropyridine-2,6-diamine] yielded an IC50 of 0.154 µM.
